Assay results as given in US20160296591A1, “COMPOSITIONS AND METHODS FOR TREATMENT OF BDNF-RELATED CONDITIONS” (TARIX PHARMACEUTICALS LTD., priority 2013, published 2016).

Columns and labels:
Type in all cases: cell-based, human
BDNF [1] = test: BDNF production in HDMEC, serum-free medium (BDNF Emax immunoassay); conditions: for lowest dose able to stimulate significant BDNF expression: serum-free medium, 24 hours stimulation, dose response 1×10^−14M to 1×10^−6M
Experimental: (§1) Prior to stimulation, cells were washed twice with sterile PBS and then provided with the respective serum free cell medium. Cells were incubated in the serum-free medium for one hour and afterwards stimulated for 24 hours. For the dose response measurement the peptides were used in a range from 1×10^−14M to 1×10^−6M. For all other experiments, a 1×10^−7M concentration of the peptides was used, whereas isoproterenol and forskolin were used in a 10^−6M concentration. To maintain the concentration of the substances over a period of 24 hours they were added again into the medium after 12 hours. After stimulation, the concentration of BDNF was determined in the cell medium. The samples were either used directly or stored at −80° C.
(§2) For the determination of the concentration of BDNF the BDNF Emax® immunoassay system from Promega was used. At first, 96-well plates were coated with anti-BDNF overnight at 4° C. The next day, the plates were washed with TBST and incubated with blocking buffer for one hour at room temperature. Afterwards, the plate was washed again with TBST, and 100 μl of sample were applied per well. The plate was incubated on a shaker (˜400 rpm) for two hours at room temperature and later on washed five times with TBST. To each well 100 μl pAb anti-human BDNF were added, and the plate again incubated under continuous shaking for two hours at room temperature. Thereafter, the plate was washed five times with TBST, each well applied with 100 μl anti-IgY-HRP conjugate, and incubated at room temperature with shaking for one hour. Then, the plate was washed five times with TBST and incubated for 10 min at room temperature on a shaker with TMB One Solution. The reaction was stopped with 1 M hydrochloric acid and the absorbance was measured immediately at 450 nm. The BDNF concentration was determined from a standard curve.

BDNF [2] = test: BDNF production in HUVEC, serum-free medium (BDNF Emax immunoassay); conditions: for lowest dose able to stimulate significant BDNF expression: serum-free medium, 24 hours stimulation, dose response 1×10^−14M to 1×10^−6M
Experimental: as §1, §2

BDNF [3] = test: BDNF production in HUVEC in complete (serum-containing) medium; conditions: peptide 1×10^−7M, 24 hours
Experimental: as §1, with “[…] […]” for “Prior to stimulation, cells were washed twice with sterile PBS and then provided with the respective serum free cell medium. Cells were incubated in the serum-free medium for one hour and afterwards stimulated for 24 hours.”
as §2, with “Thereafter, the plate was washed five times with TBST, each well applied with 100 μl anti-IgY-HRP conjugate, and incubated at room temperature with shaking for one hour. Then, the plate was washed five times with TBST and incubated for 10 min at room temperature on a shaker with TMB One Solution.” left out, “curve. […]” for “curve.”

cAMP = cAMP production in HUVEC (cAMP enzyme immunoassay); conditions: 15 minutes of stimulation
Experimental: Prior to stimulation with Ala^1-Arg^2-Val^3-Ser^4-Ile^5-His^6-Cys^7 (SEQ ID NO: 24), HUVEC cells were washed twice with PBS and then incubated for 1 hour in serum-free medium. In this Example, in order to generate a dose response curve, the peptide concentration ranged from 1×10^−13-1×10^−6 M. After 15 minutes of stimulation, the medium containing the peptide was removed and the cells were lysed (0.1M HCl, 0.1% Triton X-100). The clear lysate was collected, and 25 μl were used for determining the protein concentration (Pierce BCA Protein Assay Kit, Thermo Scientific, Rockford, USA) and the remaining fraction stored at −80° C. for later analysis.
cAMP concentration in cell lysates was determined using cAMP Enzyme Immunoassay Kit, Direct from Sigma-Aldrich (St. Louis, Mo., USA). Briefly, wells of 96-well plate (Goat Anti-Rabbit IgG pre-coated) were neutralized with 50 μl of Neutralizing Reagent. Next, 100 μl of acetylated cyclic AMP standard or cell lysate was added, followed by 50 μl of blue cAMP-Alkaline Phosphatase Conjugate and 50 μl of yellow EIA Rabbit Anti-cAMP antibody. The plate was then incubated on a shaker (˜500 rpm) for two hours at room temperature. […] The enzymatic reaction was stopped by adding 50 μl of Stop Solution, and the absorbance at 405 nm was measured immediately. The cAMP concentration was determined from non-linear standard curve using GraphPad Prism 5.0 software. […]

| Compound | lowest dose able to stimulate significant BDNF expression (BDNF [1]) [pM] | lowest dose able to stimulate significant BDNF expression (BDNF [2]) [pM] | BDNF stimulation compared to control (BDNF [3]) | BDNF expression at doses 100,000 times higher than 1×10^−11 compared with 1×10^−11 M (BDNF [1]) | BDNF expression at doses 100,000 times higher than 1×10^−11 compared with 1×10^−11 M (BDNF [2]) | dose of the observed maximum of cAMP (cAMP) | lowest dose giving a significant increase in cAMP (cAMP; dose response 1×10^−13-1×10^−6 M) [pM] |
| --- | --- | --- | --- | --- | --- | --- | --- |
| Asp^1-Arg^2-Val^3-Tyr^4-Ile^5-His^6-Pro^7 (DRVYIHP) [Ang (1-7), naturally-occurring Angiotensin (1-7), seven amino acid peptide] | 10000 | 10000 | – | – | – | – | – |
| CCC(C)C1NC(=O)C(NC(=O)C(NC(=O)C(CCCNC(=N)N)NC(=O)C(N)CC(=O)O)C(C)C)CSCC(C(=O)O)NC(=O)C(Cc2c[nH]cn2)NC1=O (centres unmarked) [Pancyte] | 10 | 10 | still able to stimulate BDNF above control levels | – | – | – | – |
| TXA301: angiotensin (1-7) peptide tested; not defined in the text, possibly linear SEQ ID NO: 6 (DRVSIHC) | 10 | 10 | – | statistically similar levels of expression | statistically similar levels of expression | – | – |
| Ala^1-Arg^2-Val^3-Ser^4-Ile^5-His^6-Cys^7 (ARVSIHC) [SEQ ID NO:24] | – | – | – | – | – | approximately 1×10^−9 M | 10 |
